The values that follow come from patent US6355428B1, “Nucleic acid ligand interaction assays” (Genelabs Technologies, Inc., priority 1998, dated 2002).

Structures are written as SMILES.

In assay [1] the test system is CCGCGCC (GC-rich) DNA duplex (SEQ ID NO: 6). Nature of the assay: SPA (scintillation proximity) direct binding assay, G/C-rich indicator duplex. The source says: (§1) This technology can be applied to studies of ligand binding as disclosed herein. Example 13, below, describes the use of the assay in a high throughput screening method, using the SPA detection system. In this example, the first oligonucleotide is labeled with biotin, and is then tightly bound to streptavidin-coated SPA beads via the strong biotin/streptavidin interaction. These beads are impregnated with scintillant. The second oligonucleotide is labeled with a weak β-emitter, such as ^3H or ^33P. The radioactive second oligonucleotide is mixed with a solution of the beads under conditions at which the first and second oligonucleotides exist primarily as single strands, as described above. The signal will thus be low, as the oligonucleotides are non-hybridized. When ligand is added, the duplex form is stabilized, and the increased proximity of the radioactive isotope (e.g., ^3H, ^33P) in the second oligonucleotide causes the bead to which the first oligonucleotide is bound to scintillate. A signal thus indicates the presence of an effective binding ligand molecule; test sequences giving higher signals indicate the relative preference for different sequences.
(§2) The data in Table II compare raw signal counts from SPA assays using three different oligonucleotides and three concentrations (0, 100, and 500 nM) of the DNA binding drug distamycin. The oligonucleotides used were G/C-rich (CCGCGCC; SEQ ID NO: 6), A/T-rich (CTTTATTATTTT; SEQ ID NO: 2), or mixed sequence (GCGGTATTT; SEQ ID NO: 12) DNA duplexes. One strand of the duplex was synthesized with a 5′-biotin label, the other strand was labeled with ^33P, as described in Example 13.
(§3) Indicator oligonucleotides as shown in Table 1 were used in this assay, as shown in Table II and FIGS. 4A-E. One strand of each duplex was labeled with biotin at the 5′-end, and the complementary strand was 3′-labeled with ^33P. […] In the absence of ligand, and under these conditions, the oligonucleotides exist in single-stranded conformation. As a result, the oligonucleotide containing the radioactive label is not in close proximity to the SPA bead, and the light given off by the beads is low, i.e., at background. As a duplex-stabilizing ligand is added, the radioactive ^33P is brought into close proximity to the SPA bead, and the light emitted from the SPA bead increases. Accordingly, each of five known DNA-binding compounds was added in increasing concentrations, and the effect on scintillation count was observed, giving the results shown in FIGS. 4A-E.
(Scintillation proximity formats need no separation of bound from free tracer.)

Assay [2] concerns GCGGTATTT (mixed) DNA duplex (SEQ ID NO: 12). Put plainly: SPA direct binding assay, mixed sequence indicator duplex.
Text: as §1, §2, §3

Assay [3] relates to 5′-CTTTTTTTTT-3′ (SEQ ID NO: 1) F/Q indicator pair. Put plainly: Fluorescence quenching direct binding assay, A/T rich DNA. The settings on record: increasing netropsin; tRNA added; room temperature. On the procedure:
(§4) The specific examples described in this section employ fluorescence quenching as the detection system. In these examples, because conditions are adjusted to maintain the oligonucleotides in single-stranded form in the absence of the ligand, the assay starts with the system at a high or maximum level of fluorescence, and fluorescence generally decreases, depending on binding affinity, as the ligand is added.
(§5) In the Figure legends, RNA oligonucleotides are denoted by an “r” at the beginning of the sequence, and single stranded controls by “ss” at the end of the sequence. These single stranded sequence, are used alone in control experiments, which thus employ only an “F” strand and no complementary quenching strand. Any quenching of fluorescence that is not due to hybridization can thus be acounted for. Maximum quenching expected on complete hybridization of these oligonucleotides is 85-90%; therefore some signal remains after complete hybridization. […]
(§6) According to the general method described above, increasing amounts of netropsin or actinomycin, respectively, were added to mixtures of selected F/Q indicator oligonucleotide pairs, whose sequences are shown in the legends of FIGS. 1 and 3. […] The Figures show the level of fluorescence observed, relative to a control having no added drug, for each indicator pair (or single strand) as the level of added drug was increased. […]

Assay [4] deals with 5′-GCGGTATTT-3′ (SEQ ID NO: 12) F/Q indicator pair. Put plainly: Fluorescence quenching direct binding assay, mixed DNA. The note with it: increasing netropsin; tRNA added; room temperature. On the procedure: as §4, §5, §6

On to `Cn1cc(NC(=O)c2cc(NC(=O)c3cc(NC=O)cn3C)cn2C)cc1C(=O)NCCC(=N)N` [Distamycin, distamycin], for which the CPM in assay [1] (100 nM Distamycin, 10 mM Na+) turned out to be 699 CPM; in assay [1] (100 nM Distamycin, 50 mM Na+), 889 CPM; in assay [1] (500 nM Distamycin, 10 mM Na+) it was 744 CPM; in assay [1] (500 nM Distamycin, 50 mM Na+), 666 CPM; in assay [2] (100 nM Distamycin, 10 mM Na+) it was 597 CPM; in assay [2] (100 nM Distamycin, 50 mM Na+), 868 CPM. Further, the CPM amounted to 1951 CPM in assay [2] (500 nM Distamycin, 10 mM Na+) and 2234 CPM in assay [2] (500 nM Distamycin, 50 mM Na+).
Take `Cn1cc(NC(=O)c2cc(NC(=O)CN=C(N)N)cn2C)cc1C(=O)NCCC(=N)N` [Netropsin, netropsin]: the “binding (decrease in fluorescence, FIG. 3A)” value in assay [3] is reported as “strongly prefers”; in assay [4], “binds well”.
